# Reference: patent US4367226A, “N-Sugar compounds, compositions and uses thereof” (priority 1980, dated 1983)
# What was measured:
# Candida albicans = experiment: Broth dilution MIC / antimicrobial test against Candida albicans (A.T.C.C. 10259); format: cell-based; conditions: 25°
# Text: (§1) In testing for the anti-microbial activity five different types of organics were selected: Staphyloccoccus aureus, Escherichia coli, Pseudomonas aeruginosa, Candida albicans, and Aspergillus niger. The inclusion of Asperigillus niger and Pseudomonas aeruginosa in the inocula is recommended to ensure a wide range of protection because these ubiquitous organisms grow in a large variety of formulations and relatively resistant to antimicrobial agents. The incidence of contaminated cosmetics has been the subject of several investigations ^(6)(7). Pseudomonas was the predominant organism found.
# (§2) One Gram-positive, two Gram-negative bacteria, one each of a yeast and a mold were selected for the test. These were, respectively, Staphylococcus aureus(A.T.C.C. 6538), Escherichia coli(A.T.C.C. 11229), Pseudomonas aeruginosa(A.T.C.C. 15442), Candida albicans(A.T.C.C. 10259), and Aspergillus niger(A.T.C.C. 1015).
# (§3) Portions of four or five discrete colonies representative of the organisms to be tested were inoculated into 10.0 ml. of a suitable broth medium and marked accordingly. The inoculated tubes were incubated at 37° for S. aureus, E. coli, and P. aeruginosa, and at 25° for C. albicans and A. niger for 18-24 hours.
# (§4) Medium: Trypticase Soy Agar(BBL) was used for bacteria, and Sabouraud Maltose Agar(BBL) for the yeast and the mold.
# (§5) Inoculation of agar plates and incubation: A 10 cm. round plastic plate was used for the preparation of medium. Each plate was divided into four areas by marking on the bottom of the plate. The agar plate was streaked by the appropriate inoculation loop. Three thin loopful of inocula were applied for covering the complete agar plate. Approximately 10-15 mg. of compound to be tested was placed at the corresponding area of each inoculated plate. The plates inoculated with S. aureus, E. coli, and P. aeruginosa were incubated at 37° for 24-48 hours, and those incubated with C. albicans and A. niger were incubated at 25° for 48-72 hours. […]
# Aspergillus niger = experiment: Broth dilution MIC / antimicrobial test against Aspergillus niger (A.T.C.C. 1015); format: cell-based; conditions: 25°
# Text: as §1, §2, §3
# Medium: Trypticase Soy Agar(BBL) was used for bacteria, and Sabouraud Maltose Agar(BBL) for the yeast and the mold. […]
# Escherichia coli = experiment: Broth dilution MIC / antimicrobial test against Escherichia coli (A.T.C.C. 11229); format: cell-based; conditions: 37°
# Text: as §1, §2, §3, §4, §5
# Pseudomonas aeruginosa = experiment: Broth dilution MIC / antimicrobial test against Pseudomonas aeruginosa (A.T.C.C. 15442); format: cell-based; conditions: 37°
# Text: as §1, §2, §3, §4, §5
# Staphylococcus aureus = experiment: Broth dilution MIC / antimicrobial test against Staphylococcus aureus (A.T.C.C. 6538); format: cell-based; conditions: for activity against S. aureus (in words): 37°
# Text: as §1, §2, §3, §4
# Inoculation of agar plates and incubation: A 10 cm. round plastic plate was used for the preparation of medium. Each plate was divided into four areas by marking on the bottom of the plate. The agar plate was streaked by the appropriate inoculation loop. Three thin loopful of inocula were applied for covering the complete agar plate. Approximately 10-15 mg. of compound to be tested was placed at the corresponding area of each inoculated plate. The plates inoculated with S. aureus, E. coli, and P. aeruginosa were incubated at 37° for 24-48 hours, and those incubated with C. albicans and A. niger were incubated at 25° for 48-72 hours.
# Interpretation and result: After incubation, if a zone of inhibition was visible around the compound placed, the susceptibility of the organism to the compound was considered to be positive. The degree of positiveness of the compound was decided by the size of the zone.
# The broth dilution method was chosen for the determination of the MIC. A 10^-1 molar stock solution was prepared by dissolving or suspending the required amount of compound in the sterilized distilled water. The desired number of sterile test tubes were aseptically filled with 9.0 ml. of Trypticase Soy Broth(BBL). 1.0 ml. of the stock solution was added to the first tube and mixed thoroughly. With a sterile pipette, 1.0 ml. was transferred from the first tube to the second tube. […]
# bacterial growth = experiment: Preservative action in cosmetic formulations; conditions: for preservation against bacterial combination: Examples I and III of U.S. Pat. No. 3,957,970, replacing the 0.05% preservative by an equal amount
# Text: The compositions of this invention are of particular utility in aqueous cosmetic formulations to inhibit bacterial growth. Reference is hereby made to cosmetic formulations as disclosed in the following U.S. Pat. Nos.: (1) 4,159,318 (2) 4,164,564, (3) 4,137,302, (4) 4,148,875, (5) 4,001,141, (6) 4,048,338, (7) 3,919,430 and (8) 3,957,970 as exemplary of formulations with which the present thioureas and thiazoles can be used; thus, Example 4 of U.S. Pat. No. 4,137,302 discloses ethyl p-dimethylaminobenzoate (0.75%).
# In Example 6 of U.S. Pat. No. 4,048,338, the 0.18 parts of methyl p-hydroxybenzoate is replaced by equal parts of the compound of Example 10 on the one hand and that of Example 12 on the other hand.
# Each of the foregoing U.S. Patents (1) to (8) is hereby incorporated by reference thereto.
# [1] = LD50 test (acute toxicity, intraperitoneal); format: in vivo, Charles River CD-1 male mice; conditions: 2000 mg/kg, one mouse
# Protocol: The toxicity of some of the compounds was ascertained in an LD50 test.
# The LD50 tests were performed for the following compounds; N-β-D-glucopyranosyl-N'-n-butylthiourea, N-β-D-glucopyranosyl-N'-benzylthiourea, N-β-D-glucopyranosyl-piperidine-1-thiocarboxamide, N-β-D-glucopyranosylthiourea, and ethyl 2-(N-β-D-glucopyranosyl)aminothiazole-4-carboxylate. The compounds were administered intraperitoneally dissolved or suspended in normal saline by 20-25 gm Charles River CD-1 male mice.
# Two animals received 1000 mg/kg and one animal received 2000 mg/kg. With the exception of the animal given by ethyl 2-(N-β-D-glucopyranosyl)aminothiazole-4-carboxylate at 2000 mg/kg, all animals survived the acute effects and appeared normal after 1 week.
# [2] = Example 6 of U.S. Pat. No. 4,048,338, replacing 0.18 parts of methyl p-hydroxybenzoate by equal parts
SMILES,activity against C. albicans (in words) (Candida albicans),activity against A. niger (in words) (Aspergillus niger),activity against E. coli (in words) (Escherichia coli),activity against P. aeruginosa (in words) (Pseudomonas aeruginosa),activity against S. aureus (in words) (Staphylococcus aureus),"MIC (Staphylococcus aureus; Staphylococcus aureus, S. aureus A.T.C.C. 6538, broth dilution, 24-48 hours at 37°, read-out: M.I.C. (Minimal Inhibitory Concentration)) [µM]","preservative action (bacterial growth; Example 4 of U.S. Pat. No. 4,137,302, in lieu of ethyl p-dimethylaminobenzoate (0.75%))",preservative action (bacterial growth; [2]),preservation against bacterial combination (bacterial growth),death [1]
"CCCCNC(=S)N[C@@H]1O[C@H](CO)[C@@H](O)[C@H](O)[C@H]1O [Example 2, N-β-D-Glucopyranosyl-N'-n-butylthiourea]",particularly outstanding activity,particularly outstanding activity,–,–,–,–,–,–,–,–
"OC[C@H]1O[C@@H](NC(=S)NCc2ccccc2)[C@H](O)[C@@H](O)[C@@H]1O [Example 5, N-β-D-Glucopyranosyl-N'-benzylthiourea]",–,–,particularly outstanding activity,particularly outstanding activity,–,–,–,–,–,–
"C=CCNC(=S)N[C@@H]1O[C@H](CO)[C@@H](O)[C@H](O)[C@H]1O [Example 10, N-β-D-Glucopyranosyl-N'-allylthiourea]",–,–,–,–,particularly outstanding activity,100,excellent preservative action,excellent preservative action,excellent preservation against bacterial combination,–
"OC[C@H]1O[C@@H](NC(=S)N2CCCCC2)[C@H](O)[C@@H](O)[C@@H]1O [Example 11, N-β-D-Glucopyranosylpiperidine-1-thiocarboxamide]",–,–,–,particularly outstanding activity,–,–,–,–,–,–
"OC[C@H]1O[C@@H](NC(=S)NCc2ccc(Cl)cc2)[C@H](O)[C@@H](O)[C@@H]1O [Example 12, N-β-D-Glucopyranosyl-N'-4-chlorobenzylthiourea]",broad inhibitory activities,–,broad inhibitory activities,–,broad inhibitory activities,–,–,excellent preservative action,excellent preservation against bacterial combination,–
"Br.CCOC(=O)c1csc(N[C@@H]2O[C@H](CO)[C@@H](O)[C@H](O)[C@H]2O)n1 [Example 15, Ethyl 2-(N-β-D-glucopyranosyl)aminothiazole-4-carboxylate hydrobromide]",broad activities against 4 organisms,not against A. Niger,broad activities against 4 organisms,broad activities against 4 organisms,broad activities against 4 organisms,–,–,–,excellent preservation against bacterial combination,dying two days later
